Here are results for 3 compounds from patent US20050148069A1, “IGF-1 instructs multipotent adult CNS neural stem cells to an oligodendroglial lineage” (priority 2003, published 2005).

The test system of this assay is adult hippocampus-derived neural progenitor cells. The experiment in a line: in vitro differentiation analysis of neural progenitor cells (immunocytochemistry for lineage markers). In kind it is cell-based, rat. Particulars: for differentiation of neural progenitor cells into oligodendrocytes: 500 ng/ml; for differentiation of neural progenitor cells into oligodendrocytes / GFAP+ astrocytes: 4 days; for rank order of potency for oligodendrocyte differentiation: different concentrations (20-1000 ng/ml); for GFAP+ astrocytes: each at 500 ng/ml. How it is done: The neural progenitor cells isolated from the hippocampus of female Fischer 344 used in this study have been characterized previously (Gage et al., 1995; Palmer et al., 1997). The whole brain-derived neural stem cells from PIO ICR mice were isolated and cultured according to the methods as described, with slight modifications. Cells were cultured as previously described (Gage et al., 1995; Ray et al., 1993). Cells between passages 10 and 20 were used for in vitro differentiation analyses. To induce differentiation, cells were plated into 4-well chamber slides at a density of 55,000-75,000 cells per well and were allowed to proliferate in N2-supplemented (Invitrogen) DMEM:F12 (Omega Scientific) medium containing 20 ng/ml FGF-2 (PeproTech, Inc.) for 24 hours. FGF-2 was then withdrawn and cells were subsequently treated with differentiation media. […] For IGF-induction experiments, cells were trypsinized, washed with 1× PBS, and plated into insulin-free N2 medium. […] In some cultures, BrdU (2.5 μM, Sigma) was added to label dividing cells, and Q-VD-OPh (2 μM, Enzyme Systems Products) was added to prevent apoptosis.
Cells were fixed with 4% paraformaldehyde, followed by immunocytochemical staining as described (Palmer et al., 1999). Labeled cells were visualized using a Nikon E800 upright microscope or a Nikon E600 inverted microscope (Nikon Inc.) and a Spot RT CCD camera (Diagnostic Instruments Inc.). 4′,6-diamidino-2-phenylindole (DAPI) was used to identify individual cells. Quantification of cell phenotypes was with StereoInvestigator (MicroBrightfield Inc.); for each marker, 500-1000 cells were sampled systematically from standardized fields at 40×magnification. For quantification of live/dead cells, images were taken of cultures live-stained with propidum iodide (1 μg/ml; Molecular Probes) and Hoescht 33342 (1 μg/ml; Sigma) at 10×magnification, and cells were counted using Image-Pro (Media Cybernetics). The following primary antibodies were used: rabbit anti-Tuj1 (1:7500;Covance), mouse anti-RIP (1:25-1:75; Hybridoma Bank); guinea pig anti-GFAP (1:500-1:2500; Advanced Immunochemical, Inc.); rabbit anti-MBP (1:500; Chemicon International Inc.), rat anti-BrdU (1:400; Accurate). Secondary antibodies were all from Jackson ImmunoResearch and used at 1:250 dilution. The detection of BrdU in cultured cells required treatment in 2 N HCL at 37° C. for 30 min (Palmer et al., 1999). All experiments were independently replicated at least 3 times.

Turning to `CC(C)[C@H](NC(=O)c1ccc2ccccc2n1)C(=O)N[C@@H](CC(=O)O)C(=O)COc1c(F)cccc1F` [Q-VD-OPh, reference compound], the “effects on proliferation or differentiation” value (2 μM Q-VD-OPh, 2-day cultures) is given as “without obvious effects on proliferation or differentiation”. In addition, where the note is “2 μM Q-VD-OPh, 2-day cultures, insulin-free N2 medium”, the “cell survival (DAPI-stained nuclei, persistence of cells)” value is given as “promoted the majority of the cells to survive”. In addition, for the setting “2 μM Q-VD-OPh, no IGF-I, 2-day cultures, insulin-free N2 medium”, the “RIP+ differentiation” value was “approximately 2%”.

In the case of “IGF-II: human recombinant IGF-II (R&D Systems)”, the “differentiation of neural progenitor cells into oligodendrocytes” value is reported as “could also promote the preferential differentiation of neural progenitor cells into oligodendrocytes”, the “rank order of potency for oligodendrocyte differentiation” value is “IGF-I>IGF-II>insulin” and the “GFAP+ astrocytes” value was “few to no GFAP+ astrocytes”.

Consider insulin: insulin (Sigma), for which the “differentiation of neural progenitor cells into oligodendrocytes” value is “could also promote the preferential differentiation of neural progenitor cells into oligodendrocytes”, the “rank order of potency for oligodendrocyte differentiation” value is reported as “IGF-I>IGF-II>insulin” and the “GFAP+ astrocytes” value was “few to no GFAP+ astrocytes”.
